Common to all, as to type: physicochemical
Data set [1] can be described thus: pKa measurement of the cationic lipid (TNS fluorescence vs pH). Particulars: probe TNS (fluorescent probe), Table 4; pKa of the cationic lipid of formula (I). The method, then:
Unless indicated otherwise, all pKa's referred to herein were measured at standard temperature and pressure. Also, unless otherwise indicated, all references to pKa are references to pKa measured using the following technique. 2 mM solution of lipid in ethanol was prepared by weighing the lipid and then dissolving it in ethanol. 0.3 mM solution of fluorescent probe TNS in ethanol:methanol 9:1 was prepared by first making 3 mM solution of TNS in methanol and then diluting to 0.3 mM with ethanol. An aqueous buffer containing 200 mM sodium phosphate dibasic and 100 mM citric acid was prepared. […] Using the Hamilton Microlab Star high throughput liquid handler and Hamilton run control software Software, 7.5 uL of probe/lipid mix were added to 242.5 uL of buffer in a 1 mL 96 well plate (model NUNC 260252, […] Nunc International). This was done with all twelve buffers. After mixing in 1 mL 96 well plate, 100 uL of each probe/lipid/buffer mixture was transferred to a 250 uL black with clear bottom 96 well plate (model COSTAR 3904, Corning). The fluorescence measurements are carried out on the SpectraMax M5 spectrophotometer using software SoftMax pro 5.2 and following parameters: After the measurement, the background fluorescence value of an empty well on the 96 well plate was subtracted from each probe/lipid/buffer mixture. The fluorescence intensity values were then normalized to the value at lowest pH. The normalized fluorescence intensity vs. pH chart was then plotted in the Microsoft Excel software. The twelve points were connected with a smooth line. The point on the line at which the normalized fluorescence intensity was equal to 0.5 was found. […] The pKa determined using this method is precise to about 0.1 pKa units.

Data set [2] is described as follows: Particle size of the lipid nanoparticle (dynamic light scattering, Malvern Zetasizer). The conditions noted are these: Table 4, FVII siRNA LNP, Z-average. The source says: (§1) The lipid nanoparticles have a size of about 1 to about 2,500 nm, about 1 to about 1,500 nm, about 1 to about 1,000 nm, in a sub-embodiment about 50 to about 600 nm, in a sub-embodiment about 50 to about 400 nm, in a sub-embodiment about 50 to about 250 nm, and in a sub-embodiment about 50 to about 150 nm. Unless indicated otherwise, all sizes referred to herein are the average sizes (diameters) of the fully formed nanoparticle, as measured by dynamic light scattering on a Malvern Zetasizer. The nanoparticle sample is diluted in phosphate buffered saline (PBS) so that the count rate is approximately 200-400 kcts. The data is presented as a weighted average of the intensity measure. The lipid nanoparticles (LNPs) were formed by mixing equal volumes of lipids dissolved in alcohol with siRNA dissolved in a citrate buffer by an impinging jet process. […] The siRNA to total lipid ratio is approximately 0.05 (wt/wt). Where a LNP formulation contains four lipid components, the molar ratios correspond to the type of lipid as it appears in the first four columns of the table, in the order that they appear. The ratio of the lipids ranges from 20 to 70 mole percent for the cationic lipid with a target of 40-60, the mole percent of helper lipid ranges from 20 to 70 with a target of 30 to 50, the mole percent of neutral lipid ranges from 0-30, the mole percent of PEG lipid has a range from 1 to 6 with a target of 2 to 5. The concentration of siRNA solution ranges from 0.7 to 1.0 mg/mL with a target of 0.8 to 0.9 mg/mL in a sodium citrate: sodium chloride buffer pH 4-6, with a target of 4.5-5.5. The LNPs are formed by mixing equal volumes of lipid solution in ethanol with siRNA dissolved in a citrate buffer by an impinging jet process through a mixing device with ID ranging from 0.25 to 2.0 mm at a flow rate from 10 to 640 mL/min. The mixed LNP solution is held at room temperature for 0-24 hrs prior to a dilution step. […] The final product is sterile filtered and stored at 4° C. Unless indicated otherwise, all particle size measurements referred to in Tables 4 and 5 are the Z-average particle size of the fully formed nanoparticle, as measured by dynamic light scattering on a Malvern Zetasizer. The nanoparticle sample was diluted in phosphate buffered saline (PBS) so that the count rate is approximately 200-400 kcts.

Data set [3] in a line: Polydispersity index (PDI) of the lipid nanoparticle (dynamic light scattering). Particulars: Table 4, FVII siRNA LNP.
Excerpt: as §1, with “The” for “The lipid nanoparticles have a size of about 1 to about 2,500 nm, about 1 to about 1,500 nm, about 1 to about 1,000 nm, in a sub-embodiment about 50 to about 600 nm, in a sub-embodiment about 50 to about 400 nm, in a sub-embodiment about 50 to about 250 nm, and in a sub-embodiment about 50 to about 150 nm. Unless indicated otherwise, all sizes referred to herein are the average sizes (diameters) of the fully formed nanoparticle, as measured by dynamic light scattering on a Malvern Zetasizer. The nanoparticle sample is diluted in phosphate buffered saline (PBS) so that the count rate is approximately 200-400 kcts. The data is presented as a weighted average of the intensity measure. The”, “all PDIs” for “all particle size measurements”, “to herein” for “to in Tables 4 and 5”, “the PDI” for “the Z-average particle size”, “rate was” for “rate is”, “kcts. The data is presented in Tables 4 and 5 as a weighted average of the intensity measure.” for “kcts.”

Setting [4] is: Chol/DSPC/stealth lipid PEG-DMG, molar ratio 45/44/9/2.
[5] abbreviates: Chol/DSPC/stealth lipid S010, molar ratio 45/44/9/2.
The mark [6] stands for this setting: Chol/DSPC/stealth lipid PEG-DMG, 45/44/9/2.
Where [7] appears, read: Chol/DSPC/stealth lipid S010, 45/44/9/2.

SMILES strings stand for the structures.

As a reminder, the pKa is the pH at which an ionisable group is half protonated. In data set [1], `CCCCC/C=C\C/C=C\CCCCCCCC(=O)OCc1cc(COC(=O)CCCCCCC/C=C\C/C=C\CCCCC)cc(CN(C)C)c1` [Example 33] registered a pKa of 5.85. Also, the figures for the “Size (nm)” value in data set [2] (setting [4]) and in data set [2] (setting [5]) were 107.8 nm and 79.15 nm, respectively. Besides, the PDI is 0.06 in data set [3] (setting [6]) and 0.042 in data set [3] (setting [7]).

As for `CCCCCCCCCCCCC(=O)OCc1cc(COC(=O)CCCCCCCCCCCC)cc(CN(C)C)c1` [Example 34], in data set [1], the pKa is 5.95. Also, the entries for the “Size (nm)” value in data set [2] (setting [4]) and in data set [2] (setting [5]) were 126.0 nm and 113.8 nm, respectively. In addition, the PDI stood at 0.06 in data set [3] (setting [6]) and 0.036 in data set [3] (setting [7]).

Take `CCCCC/C=C\C/C=C\CCCCCCCC(=O)OCCOc1cc(CN(C)C)cc(OCCOC(=O)CCCCCCC/C=C\C/C=C\CCCCC)c1` [Example 40]: the pKa in data set [1] was 6.17. Also, the “Size (nm)” value in data set [2] (setting [4]) amounted to 110.9 nm; in data set [2] (setting [5]), 94.28 nm. Also, the PDI in data set [3] (setting [6]) stood at 0.02; in data set [3] (setting [7]) it was 0.062.

In the case of `CCCCCC(=O)OCCCCCCCCOc1cc(CN(C)C)cc(OCCCCCCCCOC(=O)CCCCC)c1` [Example 41], the pKa in data set [1] is 5.83. For the same compound, the “Size (nm)” value in data set [2] (setting [5]) was found to be 170.7 nm. This compound also had a PDI in data set [3] (setting [7]) of 0.119.

Take `CCCCCC(=O)OCCCCCCCCCCOc1cc(CN(C)C)cc(OCCCCCCCCCCOC(=O)CCCCC)c1` [Example 44]: the pKa in data set [1] worked out at 5.66. Besides, the “Size (nm)” value in data set [2] (setting [5]) is listed as 172.9 nm. In data set [3] (setting [7]), the PDI was 0.077.

`CCCCC/C=C\C/C=C\CCCCCCCC(=O)OCCCCCCCCOc1cc(CN(C)C)cc(OCCCCCCCCOC(=O)CCCCCCC/C=C\C/C=C\CCCCC)c1` [Example 46]: in data set [1], the pKa is 6.18. Moreover, in data set [2] (setting [5]), the “Size (nm)” value amounted to 102.4 nm. In data set [3] (setting [7]), the PDI is given as 0.135.

As for `CCCCCCCCCC(=O)OCCCCCCOc1cc(CN(C)C)cc(OCCCCCCOC(=O)CCCCCCCCC)c1` [Example 47], the pKa in data set [1] was 6.07. In addition, the “Size (nm)” value in data set [2] (setting [4]) was found to be 109.3 nm; in data set [2] (setting [5]), 125.9 nm. The PDI in data set [3] (setting [6]) came out at 0.06; in data set [3] (setting [7]), 0.035.

As to `CCCCCCCC(=O)OCCCCCCOc1cc(CN(C)C)cc(OCCCCCCOC(=O)CCCCCCC)c1` [Example 48], in data set [1], the pKa was 5.93. The “Size (nm)” value in data set [2] (setting [5]) came out at 152.3 nm. Further, the PDI in data set [3] (setting [7]) is 0.105.

In turn, `CCCCC/C=C\C/C=C\CCCCCCCC(=O)OCCCCOc1cc(CN2CC(O)C2)cc(OCCCCOC(=O)CCCCCCC/C=C\C/C=C\CCCCC)c1` [Example 49] had a pKa in data set [1] of 5.99. Also, the “Size (nm)” value in data set [2] (setting [5]) is reported as 111.1 nm. For the same compound, the PDI in data set [3] (setting [7]) was found to be 0.046.

In data set [1], `CCC/C=C\CCCCCCC(=O)OCCCCCCOc1cc(CN(C)C)cc(OCCCCCCOC(=O)CCCCCC/C=C\CCC)c1` [Example 50] showed a pKa of 5.92. In addition, the “Size (nm)” value in data set [2] (setting [5]) is reported as 126 nm. Besides, the PDI in data set [3] (setting [7]) turned out to be 0.056.

In the case of `CCCCC/C=C\CC=CCCCCCCCC(=O)OCCCCOc1cc(CN(C)C)cc(OCCCCOC(=O)CCCCCCCC=CC/C=C\CCCCC)c1C` [Example 51], the “Size (nm)” value in data set [2] (setting [5]) turned out to be 103.2 nm. This compound also came in with a PDI in data set [3] (setting [7]) of 0.052.

Compound `CCCCCCCCCCCC(=O)OCCCCCCCCOc1cc(CN(C)C)cc(OCCCCCCCCOC(=O)CCCCCCCCCCC)c1` [Example 53] displayed a pKa in data set [1] of 6.03. For the same compound, the figures for the “Size (nm)” value in data set [2] (setting [4]) and in data set [2] (setting [5]) were 129.1 nm and 113.3 nm, respectively. In addition, the PDI in data set [3] (setting [6]) came to 0.1; in data set [3] (setting [7]), 0.079.

`CCCCC/C=C\C/C=C\CCCCCCCC(=O)OCCCCOc1cc(CN(CC)CC)cc(OCCCCOC(=O)CCCCCCC/C=C\C/C=C\CCCCC)c1C` [Example 55] had a pKa in data set [1] of 6.37. Further, the “Size (nm)” value in data set [2] (setting [4]) was 101.9 nm; in data set [2] (setting [5]), 106.9 nm. Further, the values for the PDI in data set [3] (setting [6]) and in data set [3] (setting [7]) were 0.10 and 0.043, respectively.

For `CCCCCCCC/C=C\CCCCCCCC(=O)OCCCCOc1cc(CN(C)C)cc(OCCCCOC(=O)CCCCCCC/C=C\CCCCCCCC)c1` [Example 60], the pKa in data set [1] was found to be 6.21. In addition, the “Size (nm)” value in data set [2] (setting [5]) amounted to 95.55 nm. In data set [3] (setting [7]), this compound had a PDI of 0.098.

Values taken from patent publication US9504747B2, “Lipids and lipid compositions for the delivery of active agents” (Novartis AG, priority 2013, dated 2016).
